By IC50 is commonly meant the point on the concentration scale where inhibition reaches its midpoint. Low values mean inhibition by little substance, high ones a need for much substance.

Eleven molecules from ChEMBL document CHEMBL5465560, “Selectivity Literature for EUbOPEN Chemogenomic Library” (2024) can be followed below.

In assay [1] the target is STE20-like serine/threonine-protein kinase (Homo sapiens, UniProt Q9H2G2). Kind of assay: Selectivity interaction (KinomeScan (DiscoverX)) EUB0000595a SLK. To be noted: at 10 µM.
The target of assay [2] is Death-associated protein kinase 1 (Homo sapiens, UniProt P53355). To be noted: at 10 µM.
Assay [3] concerns the target Serine/threonine-protein kinase 32B (Homo sapiens) (UniProt Q9NY57). The experiment in a line: Selectivity interaction (KinomeScan (DiscoverX)) EUB0000607a STK32B. To be noted: at 10 µM.
For assay [4], the target named is Serine/threonine-protein kinase N2 (Homo sapiens, UniProt Q16513). To be noted: at 10 µM.
Assay [5] deals with T1, Tyrosine-protein kinase BTK (Homo sapiens, UniProt Q06187). To be noted: at 10 µM.
Assay [6] addresses T2, Protein kinase C zeta type (Homo sapiens) (UniProt Q05513).
T2 sequence (whole entry): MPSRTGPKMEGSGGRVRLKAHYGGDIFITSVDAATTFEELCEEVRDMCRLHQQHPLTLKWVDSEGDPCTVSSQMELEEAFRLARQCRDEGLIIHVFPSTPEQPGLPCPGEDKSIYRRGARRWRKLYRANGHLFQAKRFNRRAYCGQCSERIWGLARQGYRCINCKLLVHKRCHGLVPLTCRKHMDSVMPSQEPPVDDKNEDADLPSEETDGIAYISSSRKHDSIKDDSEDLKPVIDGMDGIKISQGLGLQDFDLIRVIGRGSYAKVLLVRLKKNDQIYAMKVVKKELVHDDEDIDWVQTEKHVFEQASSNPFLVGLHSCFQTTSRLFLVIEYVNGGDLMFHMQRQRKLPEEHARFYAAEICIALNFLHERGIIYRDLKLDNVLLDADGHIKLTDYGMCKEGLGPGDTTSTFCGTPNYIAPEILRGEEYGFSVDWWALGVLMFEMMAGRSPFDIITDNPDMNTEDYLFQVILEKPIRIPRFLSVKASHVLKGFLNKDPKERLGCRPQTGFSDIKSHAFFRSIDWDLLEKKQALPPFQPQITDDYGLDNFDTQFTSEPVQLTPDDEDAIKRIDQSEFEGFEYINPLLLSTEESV
The experiment in a line: Selectivity interaction (ActivX KiNativ screen (kinase selectivity in THP-1 cell lysates)) EUB0000639a PRKCZ. In kind it is subcellular. To be noted: lysate.

Assay [7] deals with T3, Serine/threonine-protein kinase Sgk3 (Homo sapiens) (UniProt Q96BR1).
T3 sequence (whole entry): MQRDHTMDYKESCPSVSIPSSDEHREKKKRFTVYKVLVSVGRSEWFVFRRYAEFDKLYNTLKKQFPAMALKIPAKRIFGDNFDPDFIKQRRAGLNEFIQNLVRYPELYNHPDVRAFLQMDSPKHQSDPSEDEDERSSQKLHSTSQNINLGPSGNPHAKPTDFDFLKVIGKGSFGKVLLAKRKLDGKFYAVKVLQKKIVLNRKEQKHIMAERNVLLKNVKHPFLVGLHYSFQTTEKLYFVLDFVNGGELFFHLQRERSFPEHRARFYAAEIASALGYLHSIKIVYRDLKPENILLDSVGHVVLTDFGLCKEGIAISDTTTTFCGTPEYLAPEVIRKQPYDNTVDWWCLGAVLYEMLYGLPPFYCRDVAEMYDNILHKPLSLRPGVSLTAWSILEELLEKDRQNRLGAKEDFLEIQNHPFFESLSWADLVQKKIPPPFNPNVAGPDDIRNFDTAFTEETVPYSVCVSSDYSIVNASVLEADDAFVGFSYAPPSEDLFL
Kind of assay: Selectivity interaction (Kinase panel (Invitrogen)) EUB0000639a SGK3. To be noted: at 200 nM.

For assay [8], the target named is Calcium/calmodulin-dependent protein kinase type 1G (Homo sapiens) (UniProt Q96NX5). Kind of assay: Selectivity interaction (Ambit KINOMEscan and KiNATiv profiling in Jurkat cells) EUB0000090b CAMK1G. In kind it is cell-based. To be noted: at 1 µM.
Assay [9] deals with Angiopoietin-1 receptor (Homo sapiens) (UniProt Q02763). Kind of assay: Selectivity interaction (Ambit KINOMEscan and KiNATiv profiling in Jurkat cells) EUB0000090b TEK. The assay is classed as cell-based. To be noted: at 1 µM.
Assay [10] addresses T1, Tyrosine-protein kinase BTK. Kind of assay: Selectivity interaction (Kinase panel (33PanQinase(R) Activity Assay)) EUB0000877a BTK.
In assay [11] the target is LIM domain kinase 1 (Homo sapiens) (UniProt P53667). Kind of assay: Selectivity interaction (KinomeScan (DiscoverX)) EUB0000618a LIMK1. To be noted: at 10 µM.
The target of assay [12] is T4, Serine/threonine-protein kinase Nek2 (Homo sapiens) (UniProt P51955).
T4 sequence (whole entry): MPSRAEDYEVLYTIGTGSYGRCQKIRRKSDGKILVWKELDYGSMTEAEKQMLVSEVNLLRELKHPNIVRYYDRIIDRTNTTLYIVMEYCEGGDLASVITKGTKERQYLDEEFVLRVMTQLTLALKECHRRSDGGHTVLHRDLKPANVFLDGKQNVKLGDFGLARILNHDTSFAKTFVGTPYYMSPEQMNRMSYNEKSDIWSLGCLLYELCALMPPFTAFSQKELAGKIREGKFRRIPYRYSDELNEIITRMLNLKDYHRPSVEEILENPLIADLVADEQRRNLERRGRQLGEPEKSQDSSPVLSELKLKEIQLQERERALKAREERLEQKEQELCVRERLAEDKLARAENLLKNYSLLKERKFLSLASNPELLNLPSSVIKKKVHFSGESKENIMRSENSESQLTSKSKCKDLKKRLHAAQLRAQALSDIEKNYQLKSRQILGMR
The experiment in a line: Selectivity interaction (KinomeScan (DiscoverX)) EUB0000092b NEK2. To be noted: at 10 µM.

Assay [13] deals with Macrophage colony-stimulating factor 1 receptor (Homo sapiens) (UniProt P07333). Kind of assay: Selectivity interaction (KinomeScan (DiscoverX)) EUB0001079a CSF1R. To be noted: at 1 µM.
The target of assay [14] is Serine/threonine-protein kinase 10 (Homo sapiens) (UniProt O94804). Kind of assay: Selectivity interaction (KinomeScan (DiscoverX)) EUB0000229b STK10. To be noted: at 10 µM.

T1 sequence (Q06187 whole entry): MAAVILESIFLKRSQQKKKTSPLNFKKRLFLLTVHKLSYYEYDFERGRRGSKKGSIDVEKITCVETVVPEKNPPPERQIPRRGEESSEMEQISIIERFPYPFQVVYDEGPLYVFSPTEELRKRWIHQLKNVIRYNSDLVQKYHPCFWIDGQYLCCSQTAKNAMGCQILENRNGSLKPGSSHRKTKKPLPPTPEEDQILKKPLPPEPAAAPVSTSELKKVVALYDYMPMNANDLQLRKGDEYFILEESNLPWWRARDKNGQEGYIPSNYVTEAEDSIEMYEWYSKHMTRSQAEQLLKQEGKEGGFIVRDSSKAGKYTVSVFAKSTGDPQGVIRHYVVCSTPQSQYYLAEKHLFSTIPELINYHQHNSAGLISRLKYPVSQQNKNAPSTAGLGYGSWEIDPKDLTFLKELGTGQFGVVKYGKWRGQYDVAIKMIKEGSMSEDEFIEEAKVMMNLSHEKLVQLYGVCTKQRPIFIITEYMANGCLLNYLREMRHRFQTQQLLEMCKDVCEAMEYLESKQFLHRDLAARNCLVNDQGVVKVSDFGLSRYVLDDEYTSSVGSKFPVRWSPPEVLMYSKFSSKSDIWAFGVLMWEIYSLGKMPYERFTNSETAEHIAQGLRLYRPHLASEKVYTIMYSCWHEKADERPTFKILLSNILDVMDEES
Chain of Serine/threonine-protein kinase 32B (Homo sapiens) (Q9NY57 whole entry): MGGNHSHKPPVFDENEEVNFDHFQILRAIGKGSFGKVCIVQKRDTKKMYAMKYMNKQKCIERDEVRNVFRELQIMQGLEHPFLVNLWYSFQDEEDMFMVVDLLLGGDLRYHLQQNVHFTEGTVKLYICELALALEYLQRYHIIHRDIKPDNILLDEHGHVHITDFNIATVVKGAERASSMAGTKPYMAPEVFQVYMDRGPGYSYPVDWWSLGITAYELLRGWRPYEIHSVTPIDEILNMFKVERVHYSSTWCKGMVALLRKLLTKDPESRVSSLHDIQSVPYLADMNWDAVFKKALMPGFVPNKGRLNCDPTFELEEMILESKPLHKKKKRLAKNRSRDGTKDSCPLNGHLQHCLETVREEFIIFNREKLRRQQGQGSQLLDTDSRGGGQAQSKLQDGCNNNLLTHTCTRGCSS
Chain of LIM domain kinase 1 (Homo sapiens) (P53667 whole entry, looked up, the tested form may be a part): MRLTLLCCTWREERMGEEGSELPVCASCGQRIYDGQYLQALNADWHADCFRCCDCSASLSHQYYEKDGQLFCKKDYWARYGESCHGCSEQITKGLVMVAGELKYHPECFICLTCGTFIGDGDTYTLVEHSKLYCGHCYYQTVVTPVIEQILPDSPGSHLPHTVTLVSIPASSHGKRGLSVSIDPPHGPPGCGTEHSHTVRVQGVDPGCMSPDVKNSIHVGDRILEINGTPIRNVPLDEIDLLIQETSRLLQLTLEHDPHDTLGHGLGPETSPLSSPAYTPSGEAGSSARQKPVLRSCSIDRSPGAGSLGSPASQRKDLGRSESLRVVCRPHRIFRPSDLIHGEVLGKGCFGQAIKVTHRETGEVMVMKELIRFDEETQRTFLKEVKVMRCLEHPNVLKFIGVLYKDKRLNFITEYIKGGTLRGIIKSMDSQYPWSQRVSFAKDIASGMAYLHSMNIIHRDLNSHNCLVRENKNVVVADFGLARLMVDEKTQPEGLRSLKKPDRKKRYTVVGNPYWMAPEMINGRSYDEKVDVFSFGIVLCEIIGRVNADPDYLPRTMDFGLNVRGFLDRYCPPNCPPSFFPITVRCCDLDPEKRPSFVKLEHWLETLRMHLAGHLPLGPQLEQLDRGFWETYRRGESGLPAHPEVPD
Chain of Angiopoietin-1 receptor (Homo sapiens) (Q02763 whole entry): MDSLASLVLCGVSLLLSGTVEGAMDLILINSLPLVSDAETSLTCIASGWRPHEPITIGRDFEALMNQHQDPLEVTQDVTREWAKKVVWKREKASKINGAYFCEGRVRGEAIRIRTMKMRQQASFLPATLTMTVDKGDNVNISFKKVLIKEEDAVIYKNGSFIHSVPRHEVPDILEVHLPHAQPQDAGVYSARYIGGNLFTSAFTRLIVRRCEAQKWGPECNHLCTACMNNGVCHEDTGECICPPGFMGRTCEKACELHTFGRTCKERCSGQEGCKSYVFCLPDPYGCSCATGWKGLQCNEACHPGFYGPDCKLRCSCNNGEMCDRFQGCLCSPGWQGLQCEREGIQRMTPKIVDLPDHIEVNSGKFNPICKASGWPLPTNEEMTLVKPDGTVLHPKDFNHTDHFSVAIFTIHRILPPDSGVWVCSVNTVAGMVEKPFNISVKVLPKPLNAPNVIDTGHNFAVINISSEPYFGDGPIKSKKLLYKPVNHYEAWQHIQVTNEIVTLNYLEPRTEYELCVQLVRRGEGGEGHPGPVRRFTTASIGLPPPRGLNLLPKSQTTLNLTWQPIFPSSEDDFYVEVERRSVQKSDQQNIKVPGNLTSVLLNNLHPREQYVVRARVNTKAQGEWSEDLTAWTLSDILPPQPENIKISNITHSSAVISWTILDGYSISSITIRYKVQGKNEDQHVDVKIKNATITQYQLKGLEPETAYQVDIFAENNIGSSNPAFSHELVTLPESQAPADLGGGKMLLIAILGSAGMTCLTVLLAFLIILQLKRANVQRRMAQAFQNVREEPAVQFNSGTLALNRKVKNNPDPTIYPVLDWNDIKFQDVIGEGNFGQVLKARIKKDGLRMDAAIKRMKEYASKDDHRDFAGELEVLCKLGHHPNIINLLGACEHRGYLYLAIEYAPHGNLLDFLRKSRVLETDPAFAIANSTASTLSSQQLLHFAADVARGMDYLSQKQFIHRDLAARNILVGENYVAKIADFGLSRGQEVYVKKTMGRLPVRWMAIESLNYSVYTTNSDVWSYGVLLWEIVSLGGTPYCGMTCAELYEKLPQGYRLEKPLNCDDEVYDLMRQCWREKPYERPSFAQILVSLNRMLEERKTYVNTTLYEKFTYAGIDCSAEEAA
Chain of Macrophage colony-stimulating factor 1 receptor (Homo sapiens) (P07333 whole entry): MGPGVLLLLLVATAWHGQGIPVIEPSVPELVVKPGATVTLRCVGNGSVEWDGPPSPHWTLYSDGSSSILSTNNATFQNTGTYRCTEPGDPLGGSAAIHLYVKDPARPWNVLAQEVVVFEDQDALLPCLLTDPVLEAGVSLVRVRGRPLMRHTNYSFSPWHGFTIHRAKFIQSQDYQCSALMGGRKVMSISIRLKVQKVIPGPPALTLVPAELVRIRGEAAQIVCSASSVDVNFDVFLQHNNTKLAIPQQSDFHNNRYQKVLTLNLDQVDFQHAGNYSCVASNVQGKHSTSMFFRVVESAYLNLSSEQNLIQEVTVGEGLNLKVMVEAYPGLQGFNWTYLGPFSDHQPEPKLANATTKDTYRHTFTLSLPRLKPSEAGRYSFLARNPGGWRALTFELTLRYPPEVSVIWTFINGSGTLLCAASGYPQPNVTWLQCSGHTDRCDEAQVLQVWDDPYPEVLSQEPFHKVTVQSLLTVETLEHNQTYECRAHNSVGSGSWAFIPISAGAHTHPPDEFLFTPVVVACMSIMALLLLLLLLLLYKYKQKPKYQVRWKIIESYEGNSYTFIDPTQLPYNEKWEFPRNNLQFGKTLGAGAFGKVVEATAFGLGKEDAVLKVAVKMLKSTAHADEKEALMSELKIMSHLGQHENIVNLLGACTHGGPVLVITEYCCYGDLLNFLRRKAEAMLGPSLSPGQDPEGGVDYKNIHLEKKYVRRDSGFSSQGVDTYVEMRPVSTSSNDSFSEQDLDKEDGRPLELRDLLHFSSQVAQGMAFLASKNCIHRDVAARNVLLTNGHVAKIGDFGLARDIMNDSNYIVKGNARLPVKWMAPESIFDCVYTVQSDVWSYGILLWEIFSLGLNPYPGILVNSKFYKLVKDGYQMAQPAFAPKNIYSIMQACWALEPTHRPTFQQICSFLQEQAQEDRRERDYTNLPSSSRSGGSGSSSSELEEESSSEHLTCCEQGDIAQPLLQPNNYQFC
Chain of Calcium/calmodulin-dependent protein kinase type 1G (Homo sapiens) (Q96NX5 whole entry): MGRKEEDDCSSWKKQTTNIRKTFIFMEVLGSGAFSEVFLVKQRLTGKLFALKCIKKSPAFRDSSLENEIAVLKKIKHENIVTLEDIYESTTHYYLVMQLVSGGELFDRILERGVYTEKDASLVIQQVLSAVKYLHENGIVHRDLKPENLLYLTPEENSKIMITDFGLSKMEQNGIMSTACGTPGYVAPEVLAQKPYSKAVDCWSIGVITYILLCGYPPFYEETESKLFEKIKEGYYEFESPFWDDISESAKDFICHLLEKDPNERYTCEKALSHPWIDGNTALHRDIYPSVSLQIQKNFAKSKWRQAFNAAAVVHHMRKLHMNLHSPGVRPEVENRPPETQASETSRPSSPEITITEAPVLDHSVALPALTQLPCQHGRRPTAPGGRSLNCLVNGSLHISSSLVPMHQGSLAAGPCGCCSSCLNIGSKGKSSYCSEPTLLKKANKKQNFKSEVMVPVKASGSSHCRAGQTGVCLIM

Take `COCC(=O)NC/C=C/c1ccc2ncnc(Nc3ccc(Oc4ccc(C)nc4)c(C)c3)c2c1` [CP-724714]: in assay [1], the % of control was determined as 60%. In assay [2], `CCN(CC)CCCCNc1ncc2cc(-c3cc(OC)cc(OC)c3)c(NC(=O)NC(C)(C)C)nc2n1` yielded a % of control of 100%. On to `CNC(=O)Nc1ccc(-c2nc(N3CC4CCC(C3)O4)c3cnn(C4CCC5(CC4)OCCO5)c3n2)cc1`, for which the % of control in assay [3] stood at 86%. With `Cc1cc([C@@H](C)Nc2ccccc2C(=O)O)c2nc(N3CCOCC3)cc(=O)n2c1` [AZD-6482], the % of control in assay [4] is 98%; in assay [5], 97%. For the molecule `CC[C@@H]1[C@H](F)C(=O)N[C@@H]1COc1nccc2cc(C(N)=O)c(OC)cc12` [ZIMLOVISERTIB], the % of inhibition in assay [6] (at 0.01 µM) was 8.5%; in [6] (at 0.04 µM), -2.3%; in assay [6] (at 0.2 µM), -7.6%; in assay [6] (at 1 µM) it was 6.9%; in assay [6] (at 5 µM) it was -26.2%; in assay [7] it was 1.19%. Take `CN(C)C/C=C/C(=O)Nc1ccc(C(=O)N2CCCC(Nc3ncc(Cl)c(-c4c[nH]c5ccccc45)n3)C2)cc1` (stereo not drawn): the % of control stood at 81% in assay [8] and 92% in assay [9]. Molecule `CCC(=O)N1CC[C@H](Nc2ncnc3c2CN(c2cnc(OC)c(C(F)(F)F)c2)CC3)C1` [LENIOLISIB] displayed an IC50 in [10] above 10 µM. As for `O[C@H]1CC[C@H](Nc2ncc3nc(Nc4c(F)cc(F)cc4F)n([C@H]4CCOC4)c3n2)CC1`, the % of control in [11] stood at 35%. `CCC(=O)N1CCN(c2ccc(-n3c(=O)ccc4cnc5ccc(-c6cnc7ccccc7c6)cc5c43)cc2C(F)(F)F)CC1`: in [12], the % of control was determined as 90%. `Nc1cnc(N2CCc3cc(S(=O)(=O)Nc4c(F)cc(Cl)cc4F)cc(N4CCCC4=O)c32)nc1` [TP-020n] displayed a % of control in assay [13] of 100%. In turn, `COc1cc(N(C)c2ccnc3ccc(C(F)(F)F)cc23)cc(OC)c1OC` yielded a % binding in [14] of 84%.
